The pEC50 is −log10 of the EC50, conventionally taken in molar units.

For the experiment, the target named is T1, F508delCFTR (Homo sapiens, UniProt P13569, DEL508-508).
T1 construct: expressed in transfected cells; host or cells: CFBE41o- human lung-derived epithelial cells (CFBE4lo-F508delCFTR-HRP), doxycycline-inducible
The experiment can be described thus: Cell Surface Expression-Horse Radish Peroxidase (CSE-HRP) Assay.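 As to Maximum % activity (with co-corrector): co-corrector and positive control are both the same reference corrector at 2 µM.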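 As to Maximum % activity (without co-corrector): percent of the 2 µM on-plate positive control corrector response above DMSO.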 The settings on record: for Maximum % activity (with co-corrector): with co-corrector (2 μM); for Maximum % activity (with co-corrector) / Emax: maximum at any tested concentration, normalized to on-plate positive control; for Emax: without co-corrector, read-out: Maximum % activity (without co-corrector). Format: cell-based.

Where [1] appears, read: test compound without co-corrector, read-out: EC50 (without co-corrector).
The mark [2] stands for this setting: with co-corrector (2 μM of 3-[(2R,4R)-4-({[1-(2,2-difluoro-1,3-benzodioxol-5-yl)cyclopropyl]carbonyl}amino)-7-methoxy-3,4-dihydro-2H-chromen-2-yl]benzoic acid), read-out: EC50 (with co-corrector).

pEC50: −log10 of the molar value. Where two headings read alike, the source gives them in different places. Some results are limits rather than exact numbers.

T1 sequence (P13569 with tags, fused parts or gaps DEL508-508): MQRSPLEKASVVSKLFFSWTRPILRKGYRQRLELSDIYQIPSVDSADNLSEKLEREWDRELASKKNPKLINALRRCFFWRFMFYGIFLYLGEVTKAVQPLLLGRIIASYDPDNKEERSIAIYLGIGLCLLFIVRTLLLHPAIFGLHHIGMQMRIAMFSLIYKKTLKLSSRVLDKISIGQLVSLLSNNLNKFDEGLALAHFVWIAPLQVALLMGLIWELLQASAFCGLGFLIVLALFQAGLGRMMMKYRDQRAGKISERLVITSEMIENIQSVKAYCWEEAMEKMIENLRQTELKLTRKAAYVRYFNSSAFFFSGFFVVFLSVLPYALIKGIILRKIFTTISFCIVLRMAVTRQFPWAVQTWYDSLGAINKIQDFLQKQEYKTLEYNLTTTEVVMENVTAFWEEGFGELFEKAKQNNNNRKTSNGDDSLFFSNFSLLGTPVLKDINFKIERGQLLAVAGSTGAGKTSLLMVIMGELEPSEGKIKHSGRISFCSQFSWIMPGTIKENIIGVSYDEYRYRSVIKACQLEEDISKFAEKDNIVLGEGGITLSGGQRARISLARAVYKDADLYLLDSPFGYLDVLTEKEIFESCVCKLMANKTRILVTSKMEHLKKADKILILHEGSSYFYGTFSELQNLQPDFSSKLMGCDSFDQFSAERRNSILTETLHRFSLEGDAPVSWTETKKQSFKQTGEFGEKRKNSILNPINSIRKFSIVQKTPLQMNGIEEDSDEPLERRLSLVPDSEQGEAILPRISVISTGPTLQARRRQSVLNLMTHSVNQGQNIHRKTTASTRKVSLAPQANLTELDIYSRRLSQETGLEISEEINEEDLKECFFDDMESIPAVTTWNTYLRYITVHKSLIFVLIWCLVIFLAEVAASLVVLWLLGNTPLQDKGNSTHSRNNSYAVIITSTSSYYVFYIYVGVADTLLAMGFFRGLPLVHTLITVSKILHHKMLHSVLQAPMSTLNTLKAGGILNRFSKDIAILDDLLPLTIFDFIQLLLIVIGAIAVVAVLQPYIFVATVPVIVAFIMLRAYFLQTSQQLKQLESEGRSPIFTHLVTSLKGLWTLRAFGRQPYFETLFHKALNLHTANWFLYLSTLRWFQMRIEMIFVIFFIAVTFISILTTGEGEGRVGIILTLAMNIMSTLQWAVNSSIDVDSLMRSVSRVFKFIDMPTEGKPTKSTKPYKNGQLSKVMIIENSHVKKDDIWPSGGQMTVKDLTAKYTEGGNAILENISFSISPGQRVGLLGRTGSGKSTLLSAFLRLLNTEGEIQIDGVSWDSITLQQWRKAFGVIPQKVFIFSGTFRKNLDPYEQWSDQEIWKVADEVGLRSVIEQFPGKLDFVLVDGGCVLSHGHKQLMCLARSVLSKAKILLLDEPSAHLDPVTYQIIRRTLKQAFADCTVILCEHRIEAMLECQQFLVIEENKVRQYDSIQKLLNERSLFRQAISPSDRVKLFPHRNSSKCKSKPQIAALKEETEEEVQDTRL

In the case of `COc1ccc(C(C)(C)C)cc1CN[C@H]1[C@H](C(C)(C)C)[C@@H](C(=O)O)N(C(=O)C2CCCCC2)[C@H]1c1cccnc1OC` [Example 17, (2S,3S,4S,5S)-3-tert-butyl-4-{[(5-tert-butyl-2-methoxyphenyl)methyl]amino}-1-(cyclohexanecarbonyl)-5-(2-methoxypyridin-3-yl)pyrrolidine-2-carboxylic acid], the “Maximum % activity (with co-corrector)” value is given as “+++ (≥350)” and the Emax was above 200%. The pEC50 under setting [1] was 5.00 to 6.00. Besides, under setting [2], the negative-log EC50 (pEC50) is above 6.00.

With `COc1ccc(C(C)(C)C)cc1CN[C@H]1[C@H](C(C)(C)C)[C@@H](C(=O)O)N(C(=O)[C@@H]2CCCCO2)[C@H]1c1cccnc1N(C)C` [Example 18, (2S,3S,4S,5S)-3-tert-butyl-4-{[(5-tert-butyl-2-methoxyphenyl)methyl]amino}-5-[2-(dimethylamino)pyridin-3-yl]-1-[(2S)-oxane-2-carbonyl]pyrrolidine-2-carboxylic acid], the “Maximum % activity (with co-corrector)” value was “+++ (≥350)” and the Emax was above 200%. Further, under setting [1], the pEC50 is 5.00 to 6.00. The pEC50 under setting [2] was 5.00 to 6.00.

For the compound `COc1ccc(C(C)(C)C)cc1CN[C@H]1[C@H](C(C)(C)C)[C@@H](C(=O)O)N(C(=O)[C@H]2CCCCO2)[C@H]1c1cccnc1N(C)C` [Example 19, (2S,3S,4S,5S)-3-tert-butyl-4-{[(5-tert-butyl-2-methoxyphenyl)methyl]amino}-5-[2-(dimethylamino)pyridin-3-yl]-1-[(2R)-oxane-2-carbonyl]pyrrolidine-2-carboxylic acid], the “Maximum % activity (with co-corrector)” value is “+++ (≥350)” and the Emax is above 200%. Moreover, under setting [1], the pEC50 was 5.00 to 6.00. Further, the negative logarithm of the EC50 (pEC50) under setting [2] was 5.00 to 6.00.

As for `COc1ccc(C(C)(C)C)cc1CN[C@H]1[C@H](C(C)(C)C)[C@@H](C(=O)O)N(C(=O)CC2CCCCO2)[C@H]1c1ccccc1` (stereo partly drawn) [Example 20, (2S,3S,4S,5S)-3-tert-butyl-4-{[(5-tert-butyl-2-methoxyphenyl)methyl]amino}-1-[(oxan-2-yl)acetyl]-5-phenylpyrrolidine-2-carboxylic acid], the “Maximum % activity (with co-corrector)” value was “+++ (≥350)” and the Emax lay within 100 to 200%. Moreover, the pEC50 under setting [1] was 5.00 to 6.00. Besides, the pEC50 under setting [2] was 5.00 to 6.00.

With `COc1ncc(C(F)(F)F)cc1CN[C@H]1[C@H](C(C)(C)C)[C@@H](C(=O)O)N(C(=O)[C@@H]2CCCCO2)[C@H]1c1ccccc1` [Example 21, (2S,3S,4S,5S)-3-tert-butyl-4-({[2-methoxy-5-(trifluoromethyl)pyridin-3-yl]methyl}amino)-1-[(2S)-oxane-2-carbonyl]-5-phenylpyrrolidine-2-carboxylic acid], the “Maximum % activity (with co-corrector)” value was “+++ (≥350)” and the Emax is 100 to 200%. For the same compound, the pEC50 under setting [1] is 5.00 to 6.00. Besides, under setting [2], the negative logarithm of the EC50 (pEC50) is 5.00 to 6.00.

For `COc1ncc(C(F)(F)F)cc1CN[C@H]1[C@H](C(C)(C)OC)[C@@H](C(=O)O)N(C(=O)C2CCCCC2)[C@H]1c1ccccc1` [Example 22, (2S,3S,4S,5S)-1-(cyclohexanecarbonyl)-3-(2-methoxypropan-2-yl)-4-({[2-methoxy-5-(trifluoromethyl)pyridin-3-yl]methyl}amino)-5-phenylpyrrolidine-2-carboxylic acid], the “Maximum % activity (with co-corrector)” value is recorded as “+++ (≥350)” and the Emax is 100 to 200%. The negative-log EC50 (pEC50) under setting [1] was above 6.00. For the same compound, under setting [2], the pEC50 is above 6.00.

`COc1ccc(C(C)(C)C)cc1CN[C@H]1[C@H](C(C)(C)C)[C@@H](C(=O)O)N(C(=O)C2CCCCC2)[C@H]1c1ccccc1F` [Example 24, (2S,3S,4S,5S)-3-tert-butyl-4-{[(5-tert-butyl-2-methoxyphenyl)methyl]amino}-1-(cyclohexanecarbonyl)-5-(2-fluorophenyl)pyrrolidine-2-carboxylic acid]: the “Maximum % activity (with co-corrector)” value is “+++ (≥350)” and the Emax is above 200%. The pEC50 under setting [1] is above 6.00. Under setting [2], the negative logarithm of the EC50 (pEC50) was above 6.00.

Turning to `COc1ncc(-c2ccccc2)cc1CN[C@H]1[C@H](C(C)(C)C)[C@@H](C(=O)O)N(C(=O)C2CCCCC2)[C@H]1c1ccccc1` [Example 25, (2S,3S,4S,5S)-3-tert-butyl-1-(cyclohexanecarbonyl)-4-{[(2-methoxy-5-phenylpyridin-3-yl)methyl]amino}-5-phenylpyrrolidine-2-carboxylic acid], the “Maximum % activity (with co-corrector)” value was “+++ (≥350)” and the Emax lay within 100 to 200%. Moreover, the negative logarithm of the EC50 (pEC50) under setting [1] was above 6.00. The negative-log EC50 (pEC50) under setting [2] was above 6.00.

`COc1ncc(C(F)(F)F)cc1CN[C@H]1[C@H](C(C)(C)C)[C@@H](C(=O)O)N(C(=O)C2CCCCC2)[C@H]1c1ccc(F)cc1` [Example 26, (2S,3S,4S,5S)-3-tert-butyl-1-(cyclohexanecarbonyl)-5-(4-fluorophenyl)-4-({[2-methoxy-5-(trifluoromethyl)pyridin-3-yl]methyl}amino)pyrrolidine-2-carboxylic acid]: the “Maximum % activity (with co-corrector)” value is on record as “+++ (≥350)” and the Emax was 100 to 200%. Further, the negative logarithm of the EC50 (pEC50) under setting [1] was above 6.00. Under setting [2], the negative-log EC50 (pEC50) was above 6.00.

For the compound `COc1ncc(C(C)(C)C)cc1CN[C@H]1[C@H](C(C)(C)C)[C@@H](C(=O)O)N(C(=O)C2CCCCC2)[C@H]1c1ccccc1` [Example 27, (2S,3S,4S,5S)-3-tert-butyl-4-{[(5-tert-butyl-2-methoxypyridin-3-yl)methyl]amino}-1-(cyclohexanecarbonyl)-5-phenylpyrrolidine-2-carboxylic acid], the “Maximum % activity (with co-corrector)” value is “+++ (≥350)” and the Emax is above 200%. Also, under setting [1], the negative-log EC50 (pEC50) was 5.00 to 6.00. In addition, the pEC50 under setting [2] is 5.00 to 6.00.

Turning to `COc1nc(C(C)(C)C)ccc1CN[C@H]1[C@H](C(C)(C)C)[C@@H](C(=O)O)N(C(=O)C2CCCCC2)[C@H]1c1ccccc1` [Example 29, (2S,3S,4S,5S)-3-tert-butyl-4-{[(6-tert-butyl-2-methoxypyridin-3-yl)methyl]amino}-1-(cyclohexanecarbonyl)-5-phenylpyrrolidine-2-carboxylic acid], the “Maximum % activity (with co-corrector)” value was “+++ (≥350)” and the Emax lay in the range of 100 to 200%. The pEC50 under setting [1] is above 6.00. Further, the pEC50 under setting [2] is above 6.00.

With `COc1ccc(C(C)(C)C)cc1CN[C@H]1[C@H](C(C)(C)C)[C@@H](C(=O)O)N(C(=O)[C@H]2CCCC(F)(F)C2)[C@H]1c1ccccc1` [Example 30, (2S,3S,4S,5S)-3-tert-butyl-4-{[(5-tert-butyl-2-methoxyphenyl)methyl]amino}-1-[(1S)-3,3-difluorocyclohexane-1-carbonyl]-5-phenylpyrrolidine-2-carboxylic acid], the “Maximum % activity (with co-corrector)” value was “+++ (≥350)” and the Emax is above 200%. The pEC50 under setting [1] was 5.00 to 6.00. In addition, the pEC50 under setting [2] was 5.00 to 6.00.

For the compound `COc1ccc(C(C)(C)C)cc1CN[C@H]1[C@H](C(C)(C)C)[C@@H](C(=O)O)N(C(=O)[C@@H]2CCCC(F)(F)C2)[C@H]1c1ccccc1` [Example 31, (2S,3S,4S,5S)-3-tert-butyl-4-{[(5-tert-butyl-2-methoxyphenyl)methyl]amino}-1-[(1R)-3,3-difluorocyclohexane-1-carbonyl]-5-phenylpyrrolidine-2-carboxylic acid], the “Maximum % activity (with co-corrector)” value is “+++ (≥350)” and the Emax is above 200%. Further, the negative logarithm of the EC50 (pEC50) under setting [1] was above 6.00. Further, the pEC50 under setting [2] is above 6.00.

As to `COc1ccc(C(C)(C)C)cc1CN[C@H]1[C@H](C(C)(C)C)[C@@H](C(=O)O)N(C(=O)[C@@H](Cc2ccccc2)OC)[C@H]1c1ccccc1` [Example 32, (2S,3S,4S,5S)-3-tert-butyl-4-{[(5-tert-butyl-2-methoxyphenyl)methyl]amino}-1-[(2R)-2-methoxy-3-phenylpropanoyl]-5-phenylpyrrolidine-2-carboxylic acid], the “Maximum % activity (with co-corrector)” value is given as “+++ (≥350)” and the Emax is above 200%. Further, the negative logarithm of the EC50 (pEC50) under setting [1] is 5.00 to 6.00. Also, the pEC50 under setting [2] is above 6.00.

`COc1ccc(C2(C(F)(F)F)CC2)cc1CN[C@H]1[C@H](C(C)(C)C)[C@@H](C(=O)O)N(C(=O)C2CCCCC2)[C@H]1c1ccccc1` [Example 33, (2S,3S,4S,5S)-3-tert-butyl-1-(cyclohexanecarbonyl)-4-[({2-methoxy-5-[1-(trifluoromethyl)cyclopropyl]phenyl}methyl)amino]-5-phenylpyrrolidine-2-carboxylic acid]: the “Maximum % activity (with co-corrector)” value is on record as “+++ (≥350)” and the Emax was above 200%. For the same compound, the pEC50 under setting [1] was 5.00 to 6.00. Also, the pEC50 under setting [2] is above 6.00.

For the compound `COc1ccc(C(C)(C)C)cc1CN[C@H]1[C@H](C(C)(C)C)[C@@H](C(=O)O)N(C(=O)[C@@H]2CCCO2)[C@H]1c1ccccc1` [Example 34, (2S,3S,4S,5S)-3-tert-butyl-4-{[(5-tert-butyl-2-methoxyphenyl)methyl]amino}-1-[(2S)-oxolane-2-carbonyl]-5-phenylpyrrolidine-2-carboxylic acid], the “Maximum % activity (with co-corrector)” value is recorded as “+++ (≥350)” and the Emax was above 200%. Besides, the negative logarithm of the EC50 (pEC50) under setting [1] was 5.00 to 6.00. Besides, under setting [2], the pEC50 is 5.00 to 6.00.

`CCCC1(O)CCC(C(=O)N2C(C(=O)O)C(C(C)(C)C)C(NCc3cc(C(C)(C)C)ccc3OC)C2c2ccccc2)CC1` [Example 35, (2S,3S,4S,5S)-3-tert-butyl-4-{[(5-tert-butyl-2-methoxyphenyl)methyl]amino}-1-(cis-4-hydroxy-4-propylcyclohexane-1-carbonyl)-5-phenylpyrrolidine-2-carboxylic acid]: the “Maximum % activity (with co-corrector)” value is on record as “+++ (≥350)” and the Emax is above 200%. Under setting [1], the negative-log EC50 (pEC50) is 5.00 to 6.00. Moreover, under setting [2], the pEC50 is above 6.00.

The values above are taken from patent US20180099931A1 (AbbVie S.à.r.l., priority 2016, published 2018).
